Structures can show the parent of a compound that is named as a salt. Where two headings read alike, the source gives them in different places. Bounds are passed on as bounds.

The results in this text go back to patent US12577267B2, “Pyrimidine compounds for use as MAP4K1 inhibitors” (GLENMARK SPECIALITY S.A., priority 2021, dated 2026).

The assay addresses MAP4K-1 enzyme (Homo sapiens, UniProt Q92918). Nature of the assay: FRET one step binding assay (tracer displacement). The following applies: for inhibition at 1 µM / % Inhibition at 1 μM: 1 μM compound; for inhibition at 10 µM / % Inhibition at 10 μM: 10 μM compound. As to the method: This is a one step binding assay based on the binding and displacement of the labeled tracer, where compound addition is followed by addition of the anti-GST tagged europium (Eu) as the donor and Alexa Fluor-labeled tracer as the acceptor.
Test compounds were dissolved in dimethylsulfoxide (DMSO) to prepare 10.0 mM stock solutions and diluted to the desired concentration. The final concentration of DMSO in the reaction was 3% (v/v). The assay mixture was prepared by mixing 2 nM of the Eu-Anti-GST Antibody and 5 nM MAP4K-1 enzyme in the Kinase buffer containing 50 mM HEPES (pH 7.5), 10 mM MgCl2, 1 mM EGTA, 0.01% Brij-35 with or without the desired concentration of the compound. The reaction was incubated on ice for 15 min. […] After shaking for 5 min the reaction was further incubated for 1 hour at room temperature and this was kept at 4° C. and read on ARTEMIS reader as per the kit instructions (Thermo). […] The activity was calculated as percent of control reaction. IC50 values were calculated from dose response curve by nonlinear regression analysis using GraphPad Prism software.

Chain of MAP4K-1 enzyme (Q92918 whole entry): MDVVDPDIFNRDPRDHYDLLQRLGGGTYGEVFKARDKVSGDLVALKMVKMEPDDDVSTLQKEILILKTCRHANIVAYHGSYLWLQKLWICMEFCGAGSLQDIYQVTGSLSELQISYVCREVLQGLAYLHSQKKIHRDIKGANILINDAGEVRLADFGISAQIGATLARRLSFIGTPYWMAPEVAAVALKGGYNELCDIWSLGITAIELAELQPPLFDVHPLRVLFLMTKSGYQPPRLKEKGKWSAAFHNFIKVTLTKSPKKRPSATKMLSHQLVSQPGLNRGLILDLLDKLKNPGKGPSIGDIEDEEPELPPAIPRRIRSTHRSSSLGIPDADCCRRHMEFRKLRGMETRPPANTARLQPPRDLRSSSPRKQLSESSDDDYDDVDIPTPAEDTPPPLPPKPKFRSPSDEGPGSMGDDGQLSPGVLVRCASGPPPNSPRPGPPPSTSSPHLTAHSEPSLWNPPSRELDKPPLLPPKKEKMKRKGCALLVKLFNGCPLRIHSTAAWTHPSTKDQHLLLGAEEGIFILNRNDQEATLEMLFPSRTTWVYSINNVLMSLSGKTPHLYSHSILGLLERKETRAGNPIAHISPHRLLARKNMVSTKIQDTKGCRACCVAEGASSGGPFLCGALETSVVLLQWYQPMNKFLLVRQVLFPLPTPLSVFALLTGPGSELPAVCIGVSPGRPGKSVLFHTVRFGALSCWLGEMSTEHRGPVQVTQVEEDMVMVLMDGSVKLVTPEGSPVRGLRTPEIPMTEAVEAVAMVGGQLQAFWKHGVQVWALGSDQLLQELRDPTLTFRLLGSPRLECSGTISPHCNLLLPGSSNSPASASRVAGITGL

For the compound `COc1cc2c(cc1Nc1ncc(Cl)c(Nc3ccc(C(F)F)cc3P(C)(C)=O)n1)CN(C)CC2` [Example 54, (2-((5-Chloro-2-((6-methoxy-2-methyl-1,2,3,4-tetrahydroisoquinolin-7-yl)amino)pyrimidin-4-yl)amino)-5-(difluoromethyl)phenyl)dimethylphosphine oxide], the inhibition – broadly, the percentage by which the read-out fell short of the control – at 1 µM was determined as 93.4% and the inhibition at 10 µM was 93.7%. In addition, the IC50 (as a rule, the concentration at which inhibition is half-maximal) (read-out: IC50) was below 50 nM.
The compound `Cn1nc(Nc2ncc(Cl)c(Nc3ccc(OS(=O)(=O)F)cc3P(C)(C)=O)n2)c2c1CNC2` [Example 41, 4-((5-Chloro-2-((1-methyl-1,4,5,6-tetrahydropyrrolo[3,4-c]pyrazol-3-yl)amino)pyrimidin-4-yl)amino)-3-(dimethylphosphoryl)phenyl sulfofluoridate hydrochloride] yielded an inhibition at 1 µM of 90.4% and an inhibition at 10 µM of 85%. In addition, for the setting “IC50 (nM)”, the IC50 was below 50 nM.
As for `COc1nc2c(cc1Nc1ncc(Cl)c(Nc3ccc(OS(=O)(=O)F)cc3P(C)(C)=O)n1)CN(C)CC2` [Example 22, 4-((5-Chloro-2-((2-methoxy-6-methyl-5,6,7,8-tetrahydro-1,6-naphthyridin-3-yl)amino)pyrimidin-4-yl)amino)-3-(dimethylphosphoryl)phenyl sulfofluoridate], the % Inhibition (in general, how much of the control response was suppressed) at 1 μM came out at 75.12% and the “% Inhibition at 10 μM” value is given as 82.60%. Also, the IC50 (read-out: IC50) was below 50 nM.
`COc1cc2c(cc1Nc1ncc(Cl)c(Nc3cc(OS(=O)(=O)F)ccc3P(C)(C)=O)n1)CN(C)C(C)C2` (single isomer, unassigned; isomer 2) [Example 36, 3-((5-Chloro-2-((6-methoxy-2,3-dimethyl-1,2,3,4-tetrahydroisoquinolin-7-yl)amino)pyrimidin-4-yl)amino)-4-(dimethylphosphoryl)phenyl sulfofluoridate dihydrochloride (Isomer 2)]: the IC50 was below 50 nM. In addition, the “% Inhibition at 1 μM” value (1 µM) is given as 85.29%. Further, the “% Inhibition at 10 μM” value (10 µM) was found to be 83.76%.
In turn, `CN1CCc2cc(O)c(Nc3ncc(Cl)c(Nc4ccc(OS(=O)(=O)F)cc4P(C)(C)=O)n3)cc2C1` [Example 61, 4-((5-Chloro-2-((6-hydroxy-2-methyl-1,2,3,4-tetrahydroisoquinolin-7-yl)amino)pyrimidin-4-yl)amino)-3-(dimethylphosphoryl)phenylsulfofluoridate dihydrochloride] showed an inhibition at 1 µM of 89.6% and an inhibition at 10 µM of 89.7%. The compound also returned an IC50 (IC50 (nM)) below 50 nM.
`COc1cc2c(cc1Nc1ncc(Cl)c(Nc3ccc(C(=O)N(C)CCF)cc3P(C)(C)=O)n1)CN(C)CC2` [Example 52, 4-((5-Chloro-2-((6-methoxy-2-methyl-1,2,3,4-tetrahydroisoquinolin-7-yl)amino)pyrimidin-4-yl)amino)-3-(dimethylphosphoryl)-N-(2-fluoroethyl)-N-methyl benzamide] yielded an inhibition at 1 µM of 88.2% and an inhibition at 10 µM of 85.5%. The IC50 (read-out: IC50) is below 50 nM.
The corresponding values for `COc1cc2c(cc1Nc1ncc(Cl)c(Nc3ccc(C(F)(F)F)cc3P(C)(C)=O)n1)CN(C)CC2` [Example 55, (2-((5-Chloro-2-((6-methoxy-2-methyl-1,2,3,4-tetrahydroisoquinolin-7-yl)amino)pyrimidin-4-yl)amino)-5-(trifluoromethyl)phenyl) dimethylphosphine oxide] are 94.6%, 95.3% and below 50 nM.
The compound `COc1cc2c(cc1Nc1ncc(Cl)c(Nc3ccc(OC(F)(F)F)cc3P(C)(C)=O)n1)CN(C)CC2` [Example 47] displayed an inhibition at 1 µM of 91.4% and an inhibition at 10 µM of 88%. In addition, the IC50 (read-out: IC50) was below 50 nM.
As for `COc1cc2c(cc1Nc1ncc(Cl)c(Nc3ccc(O[C@H]4CCOC4)cc3P(C)(C)=O)n1)CN(C)CC2` [Example 48, (S)-(2-((5-Chloro-2-((6-methoxy-2-methyl-1,2,3,4-tetrahydroisoquinolin-7-yl)amino)pyrimidin-4-yl)amino)-5-((tetrahydrofuran-3-yl)oxy)phenyl)dimethylphosphineoxide], the inhibition at 1 µM turned out to be 84.2% and 10 µM produced 81.4% inhibition. Further, the 50% inhibitory concentration (IC50) (read-out: IC50) is below 50 nM.
Take `COc1cc2c(cc1Nc1ncc(Cl)c(Nc3ccc(OS(=O)(=O)F)cc3P(C)(C)=O)n1)CNCC2` [Example 38, 4-((5-Chloro-2-((6-methoxy-1,2,3,4-tetrahydroisoquinolin-7-yl)amino)pyrimidin-4-yl)amino)-3-(dimethylphosphoryl)phenylsulfofluoridate dihydrochloride]: 1 µM produced 84.5% inhibition and testing at 10 µM gave an inhibition of 85.7%. In addition, where the note is “IC50 (nM)”, the IC50 is below 50 nM.
Turning to `COc1cc2c(cc1Nc1ncc(Cl)c(Nc3ccc(OC(F)F)cc3P(C)(C)=O)n1)CN(C)CC2` [Example 45, (2-((5-Chloro-2-((6-methoxy-2-methyl-1,2,3,4-tetrahydroisoquinolin-7-yl)amino)pyrimidin-4-yl)amino)-5-(difluoromethoxy)phenyl)dimethylphosphineoxide], testing at 1 µM gave an inhibition of 74.8% and at 10 µM the inhibition was 79%. Besides, the IC50 (read-out: IC50) is below 50 nM.
`[2H]C([2H])([2H])Oc1cc2c(cc1Nc1ncc(Cl)c(Nc3ccc(OS(=O)(=O)F)cc3P(C)(C)=O)n1)CN(C([2H])([2H])[2H])CC2` [Example 6, 4-((5-Chloro-2-((6-methoxy-d3)-2-(methyl-d3)-1,2,3,4-tetrahydroisoquinolin-7-yl)amino)pyrimidin-4-yl)amino)-3-(dimethylphosphoryl)phenyl sulfurofluoridate dihydrochloride] yielded an inhibition at 1 µM of 80% and an inhibition at 10 µM of 82%. Also, under “IC50 (nM)”, the IC50 is below 50 nM.
In the case of `COc1cc2c(cc1Nc1ncc(Cl)c(Oc3ccccc3P(C)(C)=O)n1)CN(C)CC2` [Example 59, (2-((5-Chloro-2-((6-methoxy-2-methyl-1,2,3,4-tetrahydroisoquinolin-7-yl)amino)pyrimidin-4-yl)oxy)phenyl)dimethylphosphine oxide], the inhibition at 1 µM amounted to 83.1% and the inhibition at 10 µM is 87.3%. The IC50 (read-out: IC50) was below 50 nM.
In turn, `CCN1CCc2cc(OC)c(Nc3ncc(Cl)c(Nc4ccc(OS(=O)(=O)F)cc4P(C)(C)=O)n3)cc2C1` [Example 9, 4-((5-Chloro-2-((2-ethyl-6-methoxy-1,2,3,4-tetrahydroisoquinolin-7-yl)amino)pyrimidin-4-yl)amino)-3-(dimethylphosphoryl) phenyl sulfofluoridate dihydrochloride] showed an inhibition at 1 µM of 78.5% and an inhibition at 10 µM of 78.8%. Also, under “IC50 (nM)”, the IC50 is below 50 nM.
The matching figures for `COc1cc2c(cc1Nc1ncc(Cl)c(Nc3ncc(OS(=O)(=O)F)cc3P(C)(C)=O)n1)CN(C)CC2` [Example 20, 6-((5-Chloro-2-((6-methoxy-2-methyl-1,2,3,4-tetrahydroisoquinolin-7-yl)amino)pyrimidin-4-yl)amino)-5-(dimethylphosphoryl)pyridin-3-yl sulfofluoridate dihydrochloride]: 80.1%, 75.5% and below 50 nM.
With `COc1cc2c(cc1Nc1ncc(Cl)c(Nc3ccc(OCC(F)F)cc3P(C)(C)=O)n1)CN(C)CC2` [Example 46, (2-((5-Chloro-2-((6-methoxy-2-methyl-1,2,3,4-tetrahydroisoquinolin-7-yl)amino)pyrimidin-4-yl)amino)-5-(2,2-difluoroethoxy)phenyl) dimethylphosphine oxide], testing at 1 µM gave an inhibition of 73.6% and 10 µM produced 73.9% inhibition. Also, the concentration for half-maximal inhibition (IC50) (read-out: IC50) is below 50 nM.
As to `COc1cc2c(cc1Nc1ncc(Cl)c(Nc3ccc(OS(=O)(=O)F)cc3P(C)(C)=O)n1)C(=O)N(C)CC2` [Example 17, 4-((5-Chloro-2-((6-methoxy-2-methyl-1-oxo-1,2,3,4-tetrahydroisoquinolin-7-yl)amino)pyrimidin-4-yl)amino)-3-(dimethylphosphoryl)phenyl sulfurofluoridatehydrochloride], 1 µM produced 86.6% inhibition and at 10 µM the inhibition was 90.2%. The same compound gave a concentration for half-maximal inhibition (IC50) (IC50 (nM)) below 50 nM.
Consider `COc1cc2c(cc1Nc1ncc(Cl)c(Nc3c(F)cc(OS(=O)(=O)F)cc3P(C)(C)=O)n1)CN(C)CC2` [Example 14, 4-((5-Chloro-2-((6-methoxy-2-methyl-1,2,3,4-tetrahydroisoquinolin-7-yl)amino)pyrimidin-4-yl)amino)-3-(dimethylphosphoryl)-5-fluorophenylsulfurofluoridate dihydrochloride], for which testing at 1 µM gave an inhibition of 89.7% and the inhibition at 10 µM amounted to 93.3%. Moreover, for the setting “IC50 (nM)”, the IC50 was below 50 nM.
Consider `COc1cc2c(cc1Nc1ncc(Cl)c(N=S(C)(=O)c3ccccc3P(C)(C)=O)n1)CN(C)CC2` (stereo not drawn) [Example 57, (2-(N-(5-Chloro-2-((6-methoxy-2-methyl-1,2,3,4-tetrahydroisoquinolin-7-yl)amino)pyrimidin-4-yl)-S-methylsulfonimidoyl)phenyl)dimethylphosphine oxide], for which the inhibition at 1 µM turned out to be 83% and testing at 10 µM gave an inhibition of 79.3%. Also, under “read-out: IC50”, the IC50 lay in the range of 50 to 100 nM.
